pIC50: −log10 of the molar value.
Tests used:
[1] = tested on: ATP release in human platelets; conditions: applied five minutes before AA; cited from earlier work
[2] = tested on: synthesis of PGE2 in human platelets; conditions: applied five minutes before AA; cited from earlier work
[3] = tested on: synthesis of TXA2 in human platelets; conditions: applied five minutes before AA; cited from earlier work
[4] = tested on: AA-stimulated aggregation in human platelets; conditions: applied five minutes before AA; cited from earlier work
[5] = tested on: osteoclast formation from PBMC; experiment: in vitro osteoclast formation assay (RANKL/M-CSF, MTS/TRAP); format: cell-based; conditions: for suppression of osteoclast formation under the test conditions (in words): Table 1 experiments
Experimental: Each of the kavalactones isolated in Example 1 was studied in an in vitro osteoclast formation assay. The protocol used (essentially that described in T. Yoneda et al., Endocrinology, 129(2):683-689 (1991) and H. Zhou et al., J Biol. Chem., 272, 14926 (2001)) is as follows:
(A) Osteoclast Formation Culture
1) Prepare assay wells (n=4) for each dilution of a test compound in a 384-plate. Each well contains 25 μl of 2× conc. of the compound in 10% FBS-media/0.5% DMSO.
2) Suspend PBMC in 10% FBS-media supplemented with 40 ng/ml of RANKL and 20 ng/ml of human M-CSF at 1.5 M cells/ml.
3) Vortex cell suspension and filtrate through mesh filter to remove cell aggregates.
4) Inoculate 25 μl of cell suspension to each well.
5) Centrifuge the assay plate at 1500 rpm (˜700 g) for 1 min.
6) Start osteoclast formation culture in a 5% CO2-incubator.
7) After 48 h of the culture, replenish 10 μl of 10% FBS-media supplemented with 120 ng/ml of RANKL and 60 ng/ml of M-CSF. Continue the culture until multiple osteoclasts are visible in control wells (up to 4˜5 days).
1) Add 6 μl of MTS reagent to each well and further incubate 1˜2 hrs.
2) Measure absorbance at 490 nm.
3) Discard MTS/culture media and fix cells in 60% acetone/0.38 M citrate buffer, pH 5.4 for 30 sec. Rinse cells with MQ once and air-dried.
4) Incubate each well in 25 μl of 5 mM p-nitrophenyl phosphate/tartrate/acetic acid solution for 2˜3 hrs (divert buffers from acid phosphate, leukocyte kit from Sigma #386-A).
5) Measure absorbance at 405 nm.
6) Discard p-nitrophenyl phosphate solution, rinse wells with MQ and stain cells with the acid phosphate, leukocyte kit.
7) Count multinucleate (>3) TRAP#-positive cell number under microscope. # Tartarate Resistant Acid Phosphatase

[6] = Osteoclast, protocol of Example 2, PBMC with RANKL and M-CSF, read-out: IC50 (osteoclast formation inhibition)

For `COC1=CC(=O)O[C@@H](/C=C/c2ccccc2)C1` [(+)-kawain], the pIC50 [1] is given as 3.94, the pIC50 [2] is given as 4.07 and the pIC50 [3] is given as 4.15. For the same compound, the pIC50 [4] was 4.11.
For `C=CC[C@@H]1/C=C(\C)C[C@H](C)C[C@H](OC)[C@H]2O[C@@](O)(C(=O)C(=O)N3CCCC[C@H]3C(=O)O[C@H](/C(C)=C/[C@@H]3CC[C@@H](O)[C@H](OC)C3)[C@H](C)[C@@H](O)CC1=O)[C@H](C)C[C@@H]2OC` [FK506, reference compound], the IC50 [5, 6] was > 25 µg/mL.
For `CC(=O)Oc1ccccc1C(=O)O` [aspirin, reference compound], the pIC50 [5, 6] was < 4.00, the “suppression of osteoclast formation under the test conditions (in words)” value (from here on “suppression of osteoclast formation”) [5] was “do not suppress osteoclast formation” and the inhibition of osteoclasts ([5]; at 25 μM) was “no inhibition”.
With `Cc1ccc(-c2cc(C(F)(F)F)nn2-c2ccc(S(N)(=O)=O)cc2)cc1` [celecoxib, reference compound] the pIC50 [5, 6] was < 4.00.
In the case of `COc1cc(/C=C/c2ccccc2)oc(=O)c1` [desmethoxyyangonin], the pIC50 [5, 6] was 4.49.
For `COC1=CC(=O)O[C@@H](CCc2ccccc2)C1` [dihydrokawain], the “relative osteoclast formation inhibitory activity among the six kavalactones” value [5] was “relatively higher osteoclast formation inhibitory activity”, the pIC50 [5, 6] was 5.00 and the inhibition of osteoclasts ([5]; at 15 μM) was “almost complete inhibition”.
`COC1=CC(=O)O[C@@H](CCc2ccc3c(c2)OCO3)C1` [dihydromethysticin] gave a pIC50 [5, 6] of 4.89.
Compound `COC1=CC(=O)O[C@@H](/C=C/c2ccccc2)C1` [kawain] has a pIC50 [5, 6] of 4.55.
With `COC1=CC(=O)O[C@@H](/C=C/c2ccc3c(c2)OCO3)C1` [methysticin] the “relative osteoclast formation inhibitory activity among the six kavalactones” value [5] was “relatively higher osteoclast formation inhibitory activity”, the pIC50 [5, 6] was 4.89 and the inhibition of osteoclasts ([5]; at 15 μM) was “almost complete inhibition”.
For `CC/C(=C(\c1ccccc1)c1ccc(OCCN(C)C)cc1)c1ccccc1` [tamoxifen, reference compound], the “suppression of osteoclast formation” value [5] was “showed consistent activity”.
In the case of `COc1ccc(/C=C/c2cc(OC)cc(=O)o2)cc1` [yangonin], the “relative osteoclast formation inhibitory activity among the six kavalactones” value [5] was “relatively higher osteoclast formation inhibitory activity”, the pIC50 [5, 6] was 5.10 and the inhibition of osteoclasts ([5]; at 10 μM) was “almost complete inhibition”.
For “IL-4: endogeneous osteoclast formation inhibitor, control compound”, the “suppression of osteoclast formation” value [5] was “showed consistent activity” and the “IC50 (osteoclast formation inhibition)” value ([5]; protocol of Example 2, PBMC with RANKL and M-CSF) was <0.001 µg/mL.

Reference: patent US20030229137A1, “Methods of inhibiting osteoclast activity” (priority 2001, published 2003)
